We go through 2 compounds from patent publication US10596150B2, “Antifungal agents” (F2G LIMITED, priority 2014, dated 2020).

Assay [1] concerns Scedosporium apiospermum 4883. Description: Minimum Inhibitory Concentration (MIC), RPMI medium. Type of assay: cell-based. The method, then: (§1) Between 1 and 5 mgs of the compound were accurately weighed out into a sterile Eppendorf tube. The compound was dissolved in DMSO to give a solution containing 5 mg/mL. Tubes were stored at −20° C. until required.
(§2) On the day of testing thawed solutions were vortex mixed to ensure homogeneity. 30 μL of solution was removed and added to 570 μL of sterile water in a separate sterile Eppendorf. The thoroughly mixed solution was used to prepare a series of doubling dilutions in water, in a deep well plate. Thirteen replicate plates were prepared using a Minitrak by aspirating 20 μL from each well into eleven clear polystyrene 96 well plates.
(§3) Spores of Aspergillus and Scedosporium were harvested from cultures grown on Sabarauds agar for 5 days, and resuspended in PBS/Tween 80 to approx 1×10^7 cfu/mL. Each organism suspension was diluted in RPMI medium, containing 2% glucose and 0.135 M MOPS buffer (pH 7.0) to 0.5-2×10^4 cfu/mL. 80 μL of an organism suspension was added to each well of the plate containing drug dilutions.
(§4) This produced MIC plates with a drug range 50-0.05 mg/L and organism inocula of 1-2×10^4 cfu/mL. All plates were incubated for 24-48 h at 35° C. Growth was assessed by monitoring the optical density at 485 nm for each well. The MIC of a compound is the lowest drug concentration that inhibits growth of an organism by >80% compared with a drug free control.

The test system of assay [2] is Scedosporium apiospermum 15848. Described as above. Type of assay: cell-based. How it is done:
as §1, §2, §3, §4

The test system of assay [3] is A. terreus 49. The description is as above. Particulars: Aspergillus terreus, >80% growth inhibition. It counts as cell-based. How it is done: as §1, §2, §3, §4
The subject of assay [4] is Scedosporium apiospermum 13486. The assay is described as above. It counts as cell-based. How it is done: as §1, §2, §3, §4
Assay [5] concerns A. flavus. Described as above. Type of assay: cell-based. Particulars: Aspergillus flavus, >80% growth inhibition. How it is done: as §1, §2, §3, §4
For assay [6], the system named is Scedosporium prolificans 6322. The assay is described as above. It counts as cell-based. The settings on record: Lomentospora prolificans. How it is done:
as §1, §2, §3, §4

For assay [7], the system named is A. niger. Described as above. Type of assay: cell-based. The settings on record: Aspergillus niger, >80% growth inhibition. How it is done:
as §1, §2, §3, §4

Assay [8] relates to A. fumigatus 210. The assay is described as above. Type of assay: cell-based. Particulars: Aspergillus fumigatus, >80% growth inhibition. How it is done:
as §1, §2, §3, §4

Assay [9] concerns Scedosporium apiospermum 8353. The assay is described as above. It counts as cell-based. The method, then: as §1, §2, §3, §4
Assay [10] relates to Scedosporium prolificans 18389. The assay is described as above. It counts as cell-based. The settings on record: Lomentospora prolificans. How it is done: as §1, §2, §3, §4
The test system of assay [11] is A. terreus. Described as above. Type of assay: cell-based. The settings on record: Aspergillus terreus, >80% growth inhibition. The method, then: as §1, §2, §3, §4
In assay [12] the test system is Scedosporium species 15849. The description is as above. Type of assay: cell-based. How it is done:
as §1, §2, §3, §4

Assay [13] concerns Scedosporium prolificans 206. The description is as above. It counts as cell-based. The settings on record: Lomentospora prolificans. The method, then:
as §1, §2, §3, §4

The subject of assay [14] is Scedosporium apiospermum 7935. Described as above. Type of assay: cell-based. How it is done: as §1, §2, §3, §4
In assay [15] the test system is Scedosporium apiospermum 451. The description is as above. It counts as cell-based. The method, then:
as §1, §2, §3, §4

The test system of assay [16] is A. fumigatus. The description is as above. Particulars: Aspergillus fumigatus, >80% growth inhibition. It counts as cell-based. The method, then: as §1, §2, §3, §4
Assay [17] concerns A. fumigatus strain A1163. Briefly: Murine survival model of Aspergillus fumigatus infection (survival, kidney burden, serum galactomannan). The settings on record: positive control; 10 mg/kg b.i.d. by the oral route; A. fumigatus infected mice. It counts as in vivo, male CD-1 mice. The method, then:
Murine survival models are frequently used to assess the efficacy of antifungal drugs against Aspergillus. The models used in the development of Example 1 were carried out at Euprotec Ltd (Manchester) a contract research organisation (CRO) with extensive experience in the evaluation of antifungal drugs. The typical model involves the use of groups of 6-10 male CD-1 mice per treatment group. Mice are immunosuppressed with 200 mg/kg cyclophosphamide injected intraperitoneal 3 days prior to infection. A. fumigatus strain A1163 is cultured on Sabourauds agar for 4-6 days at 35° C. Spores are harvested in phosphate buffered saline (PBS)/Tween, the suspension diluted and the number of spores enumerated. Mice are then infected with an intravenous injection of A. fumigatus spores given through the lateral tail vein. The typical inoculum is 6-8×10^4 cfu/mouse and is sufficient to kill all untreated animals by Day 4-6. The animals die of IA and Aspergillus organisms can be detected in many body tissues. Treatment is typically commenced soon after infection but delays of up to 24 h following infection produce a more challenging model. Treatment is continued for 7-9 days. Treatment may be up to 3 times daily using an oral dosing. Following cessation of treatment, animals are observed for 1-2 days, and then sacrificed. Relevant controls treated with oral drug-free vehicle are always included; ideally there should be no survivors in this group. A positive control consisting of an antifungal drug such as Reference Example 10 was used. This compound consistently produces 100% survival at doses of 10 mg/kg b.i.d. dosed by the oral route. Most models are run as temporary neutropenic models where only a single dose of cyclophosphamide is administered.
The fungal burden in the kidney can be determined on animals surviving to the end of the study and this can help provide efficacy discrimination between groups where all animals survive. Tissue burdens are carried out by removing the kidneys from animals when they are culled at the end of the study. These are homogenised in saline and plated onto Sabourauds agar and incubated at 35° C. for 72 h. Aspergillus colonies are counted and the amount of aspergillus per gram of kidney calculated. The results are expressed as colony forming units per gramme (cfu/g). […] However, data from studies where tissue burden has been carried out on untreated animals at day 4 or 5 has shown that tissue burdens are typically in excess of 20,000 cfu/g and may exceed 100,000 cfu/g in some studies.
In some of the survival studies described below serum samples were collected from surviving mice at the end of the study or on mice that succumbed to infection during the study to examine the effect of Example 1 on galactomannan levels and to see if there was a relationship between galactomannan levels and survival.
The galactomannan assays were carried out on serum samples that had been stored frozen at −80° C. Samples were thawed and assayed using a Platelia Aspergillus Ag enzyme-linked immunosorbent assay (ELISA) kit (Biorad). The assay was modified slightly to take into account the small sample volumes available from mice. If assay results were high a repeat test was carried out on a sample diluted in normal mouse serum. The amount of galactomannan in a sample is presented as a galactomannan index. The mean galactomannan index for each group was calculated and is presented graphically against each treatment regimen.
The survival study carried assessed the dose response of Example 1. Example 1 was dosed orally to A. fumigatus infected mice at 2 dose levels 10 mg/kg b.i.d. and 3 mg/kg b.i.d. Therapy was initiated at 24 h post infection and therapy continued for 8 days. At the end of the study kidney burdens were measured on surviving animals. In addition serum samples were taken at the end of the study from all surviving animals and from each animal that died during the course of the study. […]

Assay [18] concerns L. prolificans FMR 3569. Briefly: Lomentospora prolificans FMR 3569 disseminated infection model (survival, tissue burden). It counts as in vivo, Male OF-1 mice. The settings on record: VRC 25 mg/kg p.o. QD; Example 1 20 mg/k p.o. BID; from day 1 after challenge for 9 days.
Protocol: L. prolificans (also known as Scedosporium prolificans or S. prolificans) was grown on Potato Dextrose Agar (PDA) for 5 days at 35° C. On the day of infection, cultures were flooded with sterile saline and filtered through sterile gauze to remove clumps of conidia and hyphae. The resulting suspensions were adjusted by haemocytometer count and by serial plating to confirm viability.
Male OF-1 mice with a mean weight of 30 g were used in the experiment. Mice were housed in standard boxes with food and water ad libitum.
Mice were rendered neutropenic two days prior to infection by an intraperitoneal (i.p.) injection of 200 mg/kg of cyclophosphamide, and once every 5 days thereafter (Clemons et al, 2005).
Mice were challenged with 5×10^4 CFU/animal of L. prolificans FMR 3569, in a volume of 0.2 ml of sterile saline into the lateral tail vein.
Treatments consisted of (a) voriconazole (VRC) (Vfend; Pfizer S. A., Madrid, Spain) at 25 mg/kg p.o, by gavage QD; (b) Example 1 at 20 mg/k, p.o, by gavage BID; and (c) no treatment. From 3 days before infection, mice that received VRC were given grapefruit juice instead of water (Sugar & Liu, 2001). All treatments began 1 day after challenge, and the therapy lasted for 9 days. Controls received no treatment.
For survival studies groups of 10 mice were randomly established for each therapy. Mortality was recorded daily until the end of the experiment. […]

Converted amounts (≈) assume the structure as drawn.

As for `Cc1cc(C)nc(N2CCN(c3ccc(NC(=O)C(=O)c4c(-c5ccccc5)cc(C)n4C)cc3)CC2)c1` [Ref. Example 10, 2-(1,5-Dimethyl-3-phenyl-1H-pyrrol-2-yl)-N-{4-[4-(4,6-dimethyl-pyridin-2-yl)-piperazin-1-yl]-phenyl}-2-oxo-acetamide], the MIC (commonly the least concentration at which growth counts as inhibited) in [1] was 0.02 to 0.04 µg/mL (≈ 0.0394 to 0.0788 µM); in [2] it was more than 0.06 µg/mL; in assay [3], 0.02 to 0.04 µg/mL (≈ 0.0394 to 0.0788 µM); in [4] (Scedosporium apiospermum, 13486), more than 0.06 µg/mL; in [5] it was 0.04 to 0.06 µg/mL (≈ 0.0788 to 0.118 µM); in assay [6], 0.04 to 0.06 µg/mL (≈ 0.0788 to 0.118 µM). In addition, the MIC in [7] was more than 0.06 µg/mL; in assay [8], 0.02 to 0.04 µg/mL (≈ 0.0394 to 0.0788 µM); in assay [9] it was 0.04 to 0.06 µg/mL (≈ 0.0788 to 0.118 µM); in assay [10], more than 0.06 µg/mL; in assay [11], 0.02 to 0.04 µg/mL (≈ 0.0394 to 0.0788 µM); in [12] it was more than 0.06 µg/mL. Moreover, the MIC in assay [13] is more than 0.06 µg/mL; in [14], more than 0.06 µg/mL; in assay [15], more than 0.06 µg/mL; in assay [16], 0.02 to 0.04 µg/mL (≈ 0.0394 to 0.0788 µM). In addition, the “MIC Scedosporium apiospermum 13486” value in [4] is “F (a grade of F represents an MIC of greater than 0.06 mg/L)”. The survival in assay [17] is listed as 100%.

Turning to `C[C@@H](c1ncncc1F)[C@](O)(Cn1cncn1)c1ccc(F)cc1F` [VRC, voriconazole], the “survival rates compared with the control (FIG. 7)” value in assay [18] is recorded as “no significant increase”.
